The values that follow come from patent publication US20210032253A1, “PYRAZOLO[1,5-A][1,3,5]TRIAZINE-2-AMINE DERIVATIVE, PREPARATION METHOD THEREFOR AND MEDICAL USE THEREOF” (JIANGSU HENGRUI MEDICINE CO., LTD., priority 2018, published 2021).

Holding throughout (assay type): cell-based
Assay [1] addresses T1, adenosine A3 receptor (A3R) (Homo sapiens, UniProt P0DMS8).
T1 construct: expressed in transfected cells; host or cells: CHO-K1
T1 sequence (P0DMS8 1-318): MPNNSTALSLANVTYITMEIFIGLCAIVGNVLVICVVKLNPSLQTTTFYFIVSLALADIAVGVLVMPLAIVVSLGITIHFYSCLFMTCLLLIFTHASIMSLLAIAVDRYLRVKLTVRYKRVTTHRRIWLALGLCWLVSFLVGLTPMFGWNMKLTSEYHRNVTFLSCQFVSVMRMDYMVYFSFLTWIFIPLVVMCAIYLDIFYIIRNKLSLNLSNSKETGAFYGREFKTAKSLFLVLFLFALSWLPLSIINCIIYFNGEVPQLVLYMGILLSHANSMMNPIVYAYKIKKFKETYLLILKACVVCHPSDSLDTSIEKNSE
The experiment in a line: Inhibition of adenosine A3 receptor cAMP signaling pathway in CHO-K1/A3R cells (HTRF cAMP dynamic 2 kit). The note with it: Table 3; for IC50: CHO-K1/A3R cells, cAMP, 10 μM forskolin, 5 nM 2Cl-IB-MECA; for IC50 ratio (A3R/A2aR): selectivity A3R over A2aR. The text has this:
(§1) Test Example 1. Determination of the inhibitory activities of the compounds of the present disclosure on the adenosine A2a receptor (A2aR) cAMP signaling pathway, the adenosine A1 receptor (A1R) cAMP signaling pathway and the adenosine A3 receptor (A3R) cAMP signaling pathway.
(§2) The inhibitory activities of the compounds of the present disclosure on the adenosine A2a receptor (A2aR) cAMP signaling pathway, the adenosine A1 receptor cAMP signaling pathway and the adenosine A3 receptor cAMP signaling pathway were determined by the following methods. The experimental method is briefly described as follows:
CHO-K1/A3R cells were cultured in DMEMIF12 medium containing 10% fetal bovine serum and 10 μg/mL puromycin. The cells were digested with the cell dissociation buffer during the experiment. The cells were resuspended in the HBSS buffer containing 20 mM HEPES and 0.1% bovine serum albumin and counted, and the cell density was adjusted to 5×10^5 cells/mL. In 384-well plates, each well was added with 12.5 μL of the cell suspension, and 6.25 μL of the test compounds (4× concentration) formulated with the HBSS buffer containing 20 mM HEPES, 0.1% bovine serum albumin, 54 μM rolipram and 2.7 U/mL adenosine deaminase, and the plates were incubated at room temperature for 30 minutes. Each well was then added with 6.25 μL of forskolin and 2Cl-IB-MECA (4× concentration) formulated with the HBSS buffer containing 20 mM HEPES, 0.1% bovine serum albumin, […] rolipram and 2.7 U/mL adenosine deaminase, and the plates were incubated at room temperature for 30 minutes. The final concentrations of the compounds were: 100000, 10000, 1000, 100, 10, 1, 0.1 and 0 nM. The final concentration of forskolin was 10 μM. The final concentration of 2Cl-IB-MECA was 5 nM. Intracellular cAMP concentration was determined with cAMP dynamic 2 kits. cAMP-d2 and Anti-cAMP—Eu-Cryptate were diluted respectively with the cAMP lysis buffer at a ratio of 1:4. Each well was added with 12.5 μL of the diluted cAMP-d2, followed by addition of 12.5 μL of the diluted Anti-cAMP—Eu-Cryptate, and the plates were incubated at room temperature in the dark for 1 hour. The HTRF signal values were read by the PHERAstar multi-function microplate reader. IC50 values for the inhibitory activities of the compounds were calculated by Graphpad Prism software, and are shown in Table 3.
In general terms: Time-resolved FRET reads energy transfer from a long-lived donor to a nearby acceptor.

The target in assay [2] is T2, adenosine A1 receptor (A1R) (Homo sapiens, UniProt P30542).
T2 construct: expressed in transfected cells; host or cells: CHO-K1
T2 sequence (P30542 1-326): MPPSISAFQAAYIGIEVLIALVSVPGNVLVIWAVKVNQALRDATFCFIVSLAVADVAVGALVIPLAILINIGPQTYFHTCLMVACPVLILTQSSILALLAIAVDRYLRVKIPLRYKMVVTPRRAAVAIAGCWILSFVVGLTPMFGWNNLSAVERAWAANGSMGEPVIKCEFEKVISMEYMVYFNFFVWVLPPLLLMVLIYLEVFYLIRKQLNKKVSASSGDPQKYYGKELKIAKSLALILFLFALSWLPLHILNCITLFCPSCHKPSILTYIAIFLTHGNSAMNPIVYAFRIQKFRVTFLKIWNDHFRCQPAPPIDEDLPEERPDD
The experiment in a line: Inhibition of adenosine A1 receptor cAMP signaling pathway in CHO-K1/A1R cells (HTRF cAMP dynamic 2 kit). To be noted: Table 2; for IC50: CHO-K1/A1R cells, cAMP, 10 μM forskolin, 10 nM CPA; for IC50 ratio (A1R/A2aR): selectivity A1R over A2aR.
Text: as §1, §2
CHO-K1/A1R cells were cultured in DMEMIF12 medium containing 10% fetal bovine serum and 1 mg/mL G418. The cells were digested with the cell dissociation buffer during the experiment. The cells were then resuspended in the HBSS buffer containing 20 mM HEPES and 0.1% bovine serum albumin and counted, and the cell density was adjusted to 5×10^5 cells/mL. In 384-well plates, each well was added with 12.5 μL of the cell suspension, and 6.25 μL of the test compounds (4× concentration) formulated with the HBSS buffer containing 20 mM HEPES, 0.1% bovine serum albumin, 54 μM rolipram and 2.7 U/mL adenosine deaminase, and the plates were incubated at room temperature for 30 minutes. Each well was then added with 6.25 μL of forskolin and N6-cyclopentyladenosine (4× concentration) formulated with the HBSS buffer containing 20 mM HEPES, 0.1% bovine serum albumin, 54 μM rolipram and 2.7 U/mL adenosine deaminase, and the plates were incubated at room temperature for 30 minutes. The final concentrations of the compounds were: 100000, 10000, 1000, 100, 10, 1, 0.1 and 0 nM. The final concentration of forskolin was 10 μM. The final concentration of CPA was 10 nM. Intracellular cAMP concentration was determined with cAMP dynamic 2 kits. cAMP-d2 and Anti-cAMP—Eu-Cryptate were diluted respectively with the cAMP lysis buffer at a ratio of 1:4. Each well was added with 12.5 μL of the diluted cAMP-d2, followed by addition of 12.5 μL of the diluted Anti-cAMP—Eu-Cryptate, and the plates were incubated at room temperature in the dark for 1 hour. The HTRF signal values were read by the PHERAstar multi-function microplate reader.

In assay [3] the target is T3, adenosine A2a receptor (A2aR) (Homo sapiens, UniProt P29274).
T3 construct: expressed in transfected cells; host or cells: CHO-K1
The experiment in a line: Inhibition of adenosine A2a receptor cAMP signaling pathway in CHO-K1/A2aR cells (HTRF cAMP dynamic 2 kit). The note with it: Table 1, 20 nM ethylcarbazole.
Text: as §1, §2
CHO-K1/A2aR cells were cultured in DMEM/F12 medium containing 10% fetal bovine serum and 800 μg/mL Zeocin™. The cells were digested with the cell dissociation buffer during the experiment. The cells were resuspended in the HBSS buffer containing 20 mM HEPES and 0.1% bovine serum albumin and counted, and the cell density was adjusted to 10^6 cells/mL. In 384-well plates, each well was added with 5 μL of the cell suspension, and 2.5 µL of test compounds (4× concentration) formulated with the HBSS buffer containing 20 mM HEPES, 0.1% bovine serum albumin, 54 μM rolipram and 2.7 U/mL adenosine deaminase, and the plates were incubated at room temperature for 30 minutes. Each well was then added with 2.5 μL of ethylcarbazole (4× concentration) formulated with the balanced salt buffer containing 20 mM HEPES, 0.1% bovine serum albumin, 54 μM rolipram and 2.7 U/mL adenosine deaminase, and the plates were incubated at room temperature for 30 minutes. The final concentrations of the compounds were: 10000, 2000, 400, 80, 16, 3.2, 0.64, 0.128, 0.0256, 0.00512, and 0.001024 nM. The final concentration of ethylcarbazole was 20 nM. Intracellular cAMP concentration was determined with cAMP dynamic 2 kits. cAMP-d2 and Anti-cAMP—Eu-Cryptate were diluted respectively with the cAMP lysis buffer at a ratio of 1:4. Each well was added with 5 μL of the diluted cAMP-d2, followed by addition of 5 μL of the diluted Anti-cAMP—Eu-Cryptate, and the plates were incubated at room temperature in the dark for 1 hour. The HTRF signal values were read by the PHERAstar multi-function microplate reader.

T3 sequence (P29274 whole entry): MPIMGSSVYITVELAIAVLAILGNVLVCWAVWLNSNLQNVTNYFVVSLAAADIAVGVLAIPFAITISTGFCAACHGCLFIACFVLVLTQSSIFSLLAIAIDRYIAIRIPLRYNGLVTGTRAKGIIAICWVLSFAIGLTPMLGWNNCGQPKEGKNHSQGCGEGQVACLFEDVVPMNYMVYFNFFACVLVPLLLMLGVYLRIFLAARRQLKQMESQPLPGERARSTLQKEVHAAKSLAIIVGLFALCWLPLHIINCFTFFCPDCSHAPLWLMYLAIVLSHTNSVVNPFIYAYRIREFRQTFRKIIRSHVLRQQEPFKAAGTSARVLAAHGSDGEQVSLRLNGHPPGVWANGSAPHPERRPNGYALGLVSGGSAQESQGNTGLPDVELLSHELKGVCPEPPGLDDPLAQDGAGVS

For orientation: IC50 means the concentration needed to halve the response being measured. Read a high IC50 as lower potency. With `Cc1ccc(-c2nc(N)nc3c(Cc4cccc(CO)n4)cnn23)o1` [Example 2, (6-((2-Amino-4-(5-methylfuran-2-yl)pyrazolo[1,5-a][1,3,5]triazin-8-yl)methyl)pyridin-2-yl)methanol], in assay [1], the IC50 worked out at 2420 nM and the “IC50 ratio (A3R/A2aR)” value is on record as >10^3. Moreover, in assay [2], half-maximal inhibition (IC50) required 1100 nM and the “IC50 ratio (A1R/A2aR)” value is >10^3. Moreover, the midpoint of inhibition in assay [3], the IC50, lay at 0.87 nM.

As for `COCc1cccc(Cc2cnn3c(-c4ccc(C)o4)nc(N)nc23)n1` [Example 13, 8-((6-(Methoxymethyl)pyridin-2-yl)methyl)-4-(5-methylfuran-2-yl)pyrazolo[1,5-a][1,3,5]triazin-2-amine], the values for the IC50 in assay [1], in assay [2] and in assay [3] were 5500 nM, 1230 nM and 1.7 nM, respectively. Besides, the “IC50 ratio (A3R/A2aR)” value in assay [1] is on record as >10^3. For the same compound, the “IC50 ratio (A1R/A2aR)” value in assay [2] is 725^.

In the case of `Cc1ccc(-c2nc(N)nc3c(Nc4cccc(CN5CC6(COC6)C5)n4)cnn23)o1` [Example 32, N^8-(6-((2-Oxa-6-azaspiro[3.3]heptan-6-yl)methyl)pyridin-2-yl)-4-(5-methylfuran-2-yl)pyrazolo[1,5-a][1,3,5]triazine-2,8-diamine], the IC50 in assay [1] was determined as 5610 nM; in assay [2], 287 nM; in assay [3], 3.74 nM. In addition, in assay [1], the “IC50 ratio (A3R/A2aR)” value was >10^3. For the same compound, the “IC50 ratio (A1R/A2aR)” value in assay [2] is recorded as 78^.

Regarding `Cc1ccc(-c2nc(N)nc3c(Nc4cccc(CN5CCN(C)CC5)n4)cnn23)o1` [Example 29, 4-(5-Methylfuran-2-yl)-N^8-(6-((4-methylpiperazin-1-yl)methyl)pyridin-2-yl)pyrazolo[1,5-a][1,3,5]triazine-2,8-diamine], in assay [1], the IC50 came out at 2180 nM and the “IC50 ratio (A3R/A2aR)” value is 779^. In assay [2], the IC50 was 3690 nM and the “IC50 ratio (A1R/A2aR)” value is >10^3. Also, in assay [3], the IC50 was found to be 2.8 nM.

For the compound `Cc1ccc(-c2nc(N)nc3c(Nc4cccc(CO[C@@H]5CCOC5)n4)cnn23)o1` [Example 21, (R)-4-(5-Methylfuran-2-yl)-N^8-(6-(((tetrahydrofuran-3-yl)oxy)methyl)pyridin-2-yl)pyrazolo[1,5-a][1,3,5]triazine-2,8-diamine], in assay [1], the IC50 worked out at 1700 nM and the “IC50 ratio (A3R/A2aR)” value is >10^3. Also, in assay [2], the IC50 came to 609 nM and the “IC50 ratio (A1R/A2aR)” value is >10^3. For the same compound, 0.4 nM corresponded to half-maximal inhibition in assay [3] (IC50).

`Nc1nc(-c2ccco2)n2ncc(Cc3ccccc3F)c2n1` [Example 10, 8-(2-Fluorobenzyl)-4-(furan-2-yl)pyrazolo[1,5-a][1,3,5]triazin-2-amine]: the IC50 in assay [1] amounted to 358 nM; in assay [2], 147 nM; in assay [3] it was 1.71 nM. Further, the “IC50 ratio (A3R/A2aR)” value in assay [1] is on record as 209^. Further, the “IC50 ratio (A1R/A2aR)” value in assay [2] is reported as 86^.

For `Cc1ccc(-c2nc(N)nc3c(Cc4cccc(COCCF)n4)cnn23)o1` [Example 14, 8-((6-((2-Fluoroethoxy)methyl)pyridin-2-yl)methyl)-4-(5-methylfuran-2-yl)pyrazolo[1,5-a][1,3,5]triazin-2-amine], in assay [1], the IC50 is 1390 nM and the “IC50 ratio (A3R/A2aR)” value is on record as >10^3. For the same compound, in assay [2], the half-inhibitory concentration (IC50) is 293 nM and the “IC50 ratio (A1R/A2aR)” value is 431^. In assay [3], this compound showed an IC50 of 0.68 nM.

On to `Cc1ccc(-c2nc(N)nc3c(Cc4cccc(CN5CC6COCC6C5)n4)cnn23)o1` (stereo not shown) [Example 9, 4-(5-Methylfuran-2-yl)-8-((6-((tetrahydro-1H-furo[3,4-c]pyrrol-5(3H)-yl)methyl)pyridin-2-yl)methyl)pyrazolo[1,5-a][1,3,5]triazin-2-amine], for which, in assay [1], inhibition was half-maximal at 3370 nM (IC50) and the “IC50 ratio (A3R/A2aR)” value is recorded as >10^3. In addition, in assay [2], the IC50 amounted to 483 nM and the “IC50 ratio (A1R/A2aR)” value is 294^. Also, the IC50 in assay [3] came out at 1.64 nM.
